Results: PMC12363265, “Glucagon-like peptide-1 receptor agonists for treatment of diabetes and obesity: advantage of oral delivery” (Frontiers in Drug Delivery, 2024)
Where a SMILES comes first, the peptide text is derived from it. [ ]: non-standard residue; d: D form. The star is where a group is joined. ξ: configuration not given here. ξGly(octyl) = CCCCCCCCC(N)C(=O)O; Hexenoyl(3E) = CC/C=C/CC(=O)*

Experiments:
[1] = ref unpublished data; cited from earlier work
Excerpt: In a separate experiment, intestinal delivery was studied of two GLP-1 analogues where modifications were made with the aim of increasing their circulating half-life by several hours relative to the native molecule. In one variant, G001, the molecule was identical to native GLP-1, except that N-terminal amino group was conjugated with salicylic acid. In the second, lipidated, analogue, G002, the N-terminal was conjugated with trans-3-hexenoic acid, and in position 14, leucine was replaced by octyl glycine. In addition, glutamate and alanine in positions 21 and 24 respectively were reversed, an ...

[2] = test system: blood glucose; assay: Blood glucose response to exendin-4 in anaesthetised rats; type: in vivo, rat; conditions: exendin-4 co-formulated in Axcess with recombinant human insulin, via the intestine, n = 5
Excerpt: Male Sprague-Dawley rats aged 8 weeks were checked for health status on delivery and assigned to cages (2 or 3 animals per cage) within the social groups at delivery and with animals of similar weight in the same cage. Animals were acclimated to the facility for 7 days before transfer to the study room for a further 4 days before the start of the experiment. The rats were randomly allotted to control and treatment groups. Animals were identified by cage tag and corresponding colour tail markings. At day −2 daily 24 h food intake was registered for each cage with 2-3 rats. At 14.00 h on day −1 (i.e., the day prior to the surgery) 50% of the usual food consumed in that interval was offered to the rats. […]
All data were entered into Excel spreadsheets and subsequently subjected to relevant statistical analyses (Graph Pad Prism software). […] Bioavailability=AUC peptide enteral administration/quantity of peptide administered enterally×quantity of peptide injected i.v./AUC of peptide after i.v. injection×100 Biopotency=biological activity after enteral administration/quantity of peptide administered enterally×quantity of peptide injected i.v./biological activity after i.v. injection×100

Row | Compound | half-life in rats [1] | blood glucose with co-formulated insulin [2]
1 | CC/C=C/CC(=O)N[C@@H](Cc1c[nH]cn1)C(=O)N[C@@H](C)C(=O)N[C@@H](CCC(=O)O)C(=O)NCC(=O)N[C@H](C(=O)N[C@@H](Cc1ccccc1)C(=O)N[C@H](C(=O)N[C@@H](CO)C(=O)N[C@@H](CC(=O)O)C(=O)N[C@H](C(=O)N[C@@H](CO)C(=O)N[C@@H](CO)C(=O)N[C@@H](Cc1ccc(O)cc1)C(=O)NC(CCCCCCCC)C(=O)N[C@@H](CCC(=O)O)C(=O)NCC(=O)N[C@@H](CCC(N)=O)C(=O)N[C@@H](C)C(=O)N[C@@H](C)C(=O)N[C@@H](CCCCN)C(=O)N[C@@H](C)C(=O)N[C@@H](Cc1ccccc1)C(=O)N[C@H](C(=O)N[C@@H](CCC(=O)O)C(=O)N[C@@H](Cc1c[nH]c2ccccc12)C(=O)N[C@@H](CC(C)C)C(=O)N[C@H](C(=O)N[C@@H](CCCCN)C(=O)N[C@@H](CC(N)=O)C(N)=O)C(C)C)[C@@H](C)CC)C(C)C)[C@@H](C)O)[C@@H](C)O (stereo partly drawn) [G002] ({Hexenoyl(3E)}-HAEGTFTSDVSSY[ξGly(octyl)]EGQAAKAFIEWLVKN-NH2) | ~12 h | –
2 | Sal-HAEGTFTSDVSSYLEGQAAKEFIAWLVKGR-NH2 [G001, identical to native GLP-1, except that N-terminal amino group was conjugated with salicylic acid] | 0.417 h | –
3 | recombinant human insulin: recombinant human insulin co-formulated with exendin-4 in the Axcess formulation | – | reduce blood glucose relative to exendin-4 administered alone
